Results as given in the supplement of paper PMC10307832.

Key:
Assay in all cases: relative viability (nuclei count vs DMSO), 5 days (fraction); higher = more cells survive
[1] = system: NCI-H596
Method in brief: (§1)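 Cells from lung cancer lines were seeded into 1536-well plates and, one day later, dosed by pin tool. Treatments were either a single drug or a fixed dose of an anchor drug with five library-drug doses (not always all listed) in √10 steps. After 5 days, nuclei were stained in a one-step fixation (final 0.05% Triton X-100, 1% formaldehyde, 1 ug/ml Hoechst) and counted on 4× images, and relative viability is the treated-to-vehicle nuclei ratio, as the median of duplicate plates.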

[2] = system: NCI-H2023
Method in brief: as §1

[3] = system: NCI-H3122
Method in brief: as §1

[4] = system: NCI-H2009
Method in brief: as §1

[5] = system: PC-14
Method in brief: as §1

[6] = system: A-427
Method in brief: as §1

[7] = system: NCI-H1793
Method in brief: as §1

[8] = system: NCI-H650
Method in brief: as §1

[9] = system: SK-LU-1
Method in brief: as §1

[10] = system: PC-3 [JPC-3]
Method in brief: as §1

[11] = system: NCI-H1975
Method in brief: as §1

[12] = system: NCI-H460
Method in brief: as §1

[13] = system: NCI-H1915
Method in brief: as §1

[14] = system: HCC-15
Method in brief: as §1

[15] = system: HCC-366
Method in brief: as §1

[16] = system: NCI-H1437
Method in brief: as §1

[17] = system: NCI-H2405
Method in brief: as §1

[18] = system: LXF-289
Method in brief: as §1

[19] = system: NCI-H441
Method in brief: as §1

[20] = system: IA-LM
Method in brief: as §1

[21] = system: UMC-11
Method in brief: as §1

[22] = system: H3255
Method in brief: as §1

[23] = system: NCI-H1755
Method in brief: as §1

[24] = system: HARA
Method in brief: as §1

CCCCCCCCCCCC1=C(O)C(=O)C=C(O)C1=O [Embelin] + O=C(CCCCCCC(=O)Nc1ccccc1)NO [Vorinostat] (partner 1 µM)
relative viability ([1]; first compound 0.08 µM): 0.56
relative viability ([1]; first compound 0.8 µM): 0.73
relative viability ([1]; first compound 2.53 µM): 0.667
relative viability ([1]; first compound 8 µM): 0.495
relative viability ([2]; first compound 0.08 µM): 0.622
relative viability ([2]; first compound 0.8 µM): 0.701
relative viability ([2]; first compound 2.53 µM): 0.565
relative viability ([2]; first compound 8 µM): 0.392
relative viability ([3]; first compound 0.08 µM): 0.816
relative viability ([3]; first compound 0.8 µM): 0.999
relative viability ([3]; first compound 2.53 µM): 1.01
relative viability ([3]; first compound 8 µM): 0.915
relative viability ([4]; first compound 0.08 µM): 0.748
relative viability ([4]; first compound 0.8 µM): 0.837
relative viability ([4]; first compound 2.53 µM): 0.705
relative viability ([4]; first compound 8 µM): 0.748
relative viability ([5]; first compound 0.08 µM): 0.746
relative viability ([5]; first compound 0.8 µM): 0.886
relative viability ([5]; first compound 2.53 µM): 0.586
relative viability ([5]; first compound 8 µM): 0.948
relative viability ([6]; first compound 0.08 µM): 0.856
relative viability ([6]; first compound 0.8 µM): 0.899
relative viability ([6]; first compound 2.53 µM): 0.88
relative viability ([6]; first compound 8 µM): 0.441
relative viability ([7]; first compound 0.08 µM): 0.728
relative viability ([7]; first compound 0.8 µM): 0.842
relative viability ([7]; first compound 2.53 µM): 0.754
relative viability ([7]; first compound 8 µM): 0.439
relative viability ([8]; first compound 0.08 µM): 0.393
relative viability ([8]; first compound 0.8 µM): 0.557
relative viability ([8]; first compound 2.53 µM): 0.354
relative viability ([8]; first compound 8 µM): 0.484
relative viability ([9]; first compound 0.08 µM): 0.892
relative viability ([9]; first compound 0.8 µM): 0.954
relative viability ([9]; first compound 2.53 µM): 0.75
relative viability ([9]; first compound 8 µM): 0.518
relative viability ([10]; first compound 0.08 µM): 0.614
relative viability ([10]; first compound 0.8 µM): 0.95
relative viability ([10]; first compound 2.53 µM): 0.68
relative viability ([10]; first compound 8 µM): 0.604
relative viability ([11]; first compound 0.08 µM): 0.717
relative viability ([11]; first compound 0.8 µM): 0.741
relative viability ([11]; first compound 2.53 µM): 0.75
relative viability ([11]; first compound 8 µM): 0.729
relative viability ([12]; first compound 0.08 µM): 0.687
relative viability ([12]; first compound 0.8 µM): 0.948
relative viability ([12]; first compound 2.53 µM): 0.933
relative viability ([12]; first compound 8 µM): 0.397
relative viability ([13]; first compound 0.08 µM): 0.563
relative viability ([13]; first compound 0.8 µM): 0.544
relative viability ([13]; first compound 2.53 µM): 0.521
relative viability ([13]; first compound 8 µM): 0.473
relative viability ([14]; first compound 0.08 µM): 0.906
relative viability ([14]; first compound 0.8 µM): 0.965
relative viability ([14]; first compound 2.53 µM): 0.908
relative viability ([14]; first compound 8 µM): 0.841
relative viability ([15]; first compound 0.08 µM): 0.409
relative viability ([15]; first compound 0.8 µM): 0.412
relative viability ([15]; first compound 2.53 µM): 0.364
relative viability ([15]; first compound 8 µM): 0.268
relative viability ([16]; first compound 0.08 µM): 0.83
relative viability ([16]; first compound 0.8 µM): 0.943
relative viability ([16]; first compound 2.53 µM): 0.853
relative viability ([16]; first compound 8 µM): 0.392
relative viability ([17]; first compound 0.08 µM): 1.01
relative viability ([17]; first compound 0.8 µM): 1.13
relative viability ([17]; first compound 2.53 µM): 0.95
relative viability ([17]; first compound 8 µM): 0.899
relative viability ([18]; first compound 0.08 µM): 0.803
relative viability ([18]; first compound 0.8 µM): 0.742
relative viability ([18]; first compound 2.53 µM): 0.715
relative viability ([18]; first compound 8 µM): 0.809
relative viability ([19]; first compound 0.08 µM): 0.691
relative viability ([19]; first compound 0.8 µM): 0.905
relative viability ([19]; first compound 2.53 µM): 0.841
relative viability ([19]; first compound 8 µM): 0.657
relative viability ([20]; first compound 0.08 µM): 0.963
relative viability ([20]; first compound 0.8 µM): 1.03
relative viability ([20]; first compound 2.53 µM): 1.2
relative viability ([20]; first compound 8 µM): 0.937
relative viability ([21]; first compound 0.08 µM): 0.39
relative viability ([21]; first compound 0.8 µM): 0.407
relative viability ([21]; first compound 2.53 µM): 0.372
relative viability ([21]; first compound 8 µM): 0.393
relative viability ([22]; first compound 0.08 µM): 0.873
relative viability ([22]; first compound 0.8 µM): 0.834
relative viability ([22]; first compound 2.53 µM): 0.711
relative viability ([22]; first compound 8 µM): 0.948
relative viability ([23]; first compound 0.08 µM): 0.723
relative viability ([23]; first compound 0.8 µM): 0.813
relative viability ([23]; first compound 2.53 µM): 0.809
relative viability ([23]; first compound 8 µM): 0.574
relative viability ([24]; first compound 0.08 µM): 0.559
relative viability ([24]; first compound 0.8 µM): 0.603
relative viability ([24]; first compound 2.53 µM): 0.545
relative viability ([24]; first compound 8 µM): 0.582

CCCCCCCCCCCC1=C(O)C(=O)C=C(O)C1=O [Embelin] + O=C(c1cc(Cc2n[nH]c(=O)c3ccccc23)ccc1F)N1CCN(C(=O)C2CC2)CC1 [Olaparib] (partner 8 µM)
relative viability ([1]; first compound 0.08 µM): 0.698
relative viability ([1]; first compound 0.8 µM): 0.707
relative viability ([1]; first compound 2.53 µM): 0.68
relative viability ([1]; first compound 8 µM): 0.762
relative viability ([2]; first compound 0.08 µM): 0.432
relative viability ([2]; first compound 0.8 µM): 0.455
relative viability ([2]; first compound 2.53 µM): 0.509
relative viability ([2]; first compound 8 µM): 0.229
relative viability ([3]; first compound 0.08 µM): 0.646
relative viability ([3]; first compound 0.8 µM): 0.603
relative viability ([3]; first compound 2.53 µM): 0.609
relative viability ([3]; first compound 8 µM): 0.671
relative viability ([4]; first compound 0.08 µM): 0.693
relative viability ([4]; first compound 0.8 µM): 0.821
relative viability ([4]; first compound 2.53 µM): 0.71
relative viability ([4]; first compound 8 µM): 0.696
relative viability ([5]; first compound 0.08 µM): 0.279
relative viability ([5]; first compound 0.8 µM): 0.264
relative viability ([5]; first compound 2.53 µM): 0.303
relative viability ([5]; first compound 8 µM): 0.26
relative viability ([6]; first compound 0.08 µM): 0.765
relative viability ([6]; first compound 0.8 µM): 0.872
relative viability ([6]; first compound 2.53 µM): 0.792
relative viability ([6]; first compound 8 µM): 0.524
relative viability ([7]; first compound 0.08 µM): 0.993
relative viability ([7]; first compound 0.8 µM): 1.03
relative viability ([7]; first compound 2.53 µM): 1.12
relative viability ([7]; first compound 8 µM): 1.05
relative viability ([8]; first compound 0.08 µM): 0.385
relative viability ([8]; first compound 0.8 µM): 0.407
relative viability ([8]; first compound 2.53 µM): 0.371
relative viability ([8]; first compound 8 µM): 0.381
relative viability ([9]; first compound 0.08 µM): 0.591
relative viability ([9]; first compound 0.8 µM): 0.56
relative viability ([9]; first compound 2.53 µM): 0.505
relative viability ([9]; first compound 8 µM): 0.433
relative viability ([10]; first compound 0.08 µM): 1.12
relative viability ([10]; first compound 0.8 µM): 1.17
relative viability ([10]; first compound 2.53 µM): 1.17
relative viability ([10]; first compound 8 µM): 1.07
relative viability ([11]; first compound 0.08 µM): 0.887
relative viability ([11]; first compound 0.8 µM): 0.779
relative viability ([11]; first compound 2.53 µM): 0.932
relative viability ([11]; first compound 8 µM): 0.904
relative viability ([12]; first compound 0.08 µM): 0.45
relative viability ([12]; first compound 0.8 µM): 0.431
relative viability ([12]; first compound 2.53 µM): 0.421
relative viability ([12]; first compound 8 µM): 0.468
relative viability ([13]; first compound 0.08 µM): 0.274
relative viability ([13]; first compound 0.8 µM): 0.254
relative viability ([13]; first compound 2.53 µM): 0.243
relative viability ([13]; first compound 8 µM): 0.248
relative viability ([14]; first compound 0.08 µM): 0.689
relative viability ([14]; first compound 0.8 µM): 0.727
relative viability ([14]; first compound 2.53 µM): 0.823
relative viability ([14]; first compound 8 µM): 0.73
relative viability ([15]; first compound 0.08 µM): 0.335
relative viability ([15]; first compound 0.8 µM): 0.369
relative viability ([15]; first compound 2.53 µM): 0.372
relative viability ([15]; first compound 8 µM): 0.423
relative viability ([16]; first compound 0.08 µM): 0.611
relative viability ([16]; first compound 0.8 µM): 0.685
relative viability ([16]; first compound 2.53 µM): 0.639
relative viability ([16]; first compound 8 µM): 0.495
relative viability ([17]; first compound 0.08 µM): 0.872
relative viability ([17]; first compound 0.8 µM): 0.842
relative viability ([17]; first compound 2.53 µM): 0.909
relative viability ([17]; first compound 8 µM): 0.863
relative viability ([18]; first compound 0.08 µM): 1.06
relative viability ([18]; first compound 0.8 µM): 1.17
relative viability ([18]; first compound 2.53 µM): 1.26
relative viability ([18]; first compound 8 µM): 1.14
relative viability ([19]; first compound 0.08 µM): 0.624
relative viability ([19]; first compound 0.8 µM): 0.627
relative viability ([19]; first compound 2.53 µM): 0.521
relative viability ([19]; first compound 8 µM): 0.618
relative viability ([20]; first compound 0.08 µM): 0.899
relative viability ([20]; first compound 0.8 µM): 0.894
relative viability ([20]; first compound 2.53 µM): 0.847
relative viability ([20]; first compound 8 µM): 0.616
relative viability ([21]; first compound 0.08 µM): 0.338
relative viability ([21]; first compound 0.8 µM): 0.389
relative viability ([21]; first compound 2.53 µM): 0.352
relative viability ([21]; first compound 8 µM): 0.331
relative viability ([22]; first compound 0.08 µM): 0.561
relative viability ([22]; first compound 0.8 µM): 0.614
relative viability ([22]; first compound 2.53 µM): 0.59
relative viability ([22]; first compound 8 µM): 0.546
relative viability ([23]; first compound 0.08 µM): 0.986
relative viability ([23]; first compound 0.8 µM): 0.879
relative viability ([23]; first compound 2.53 µM): 0.901
relative viability ([23]; first compound 8 µM): 0.849
relative viability ([24]; first compound 0.08 µM): 0.85
relative viability ([24]; first compound 0.8 µM): 0.734
relative viability ([24]; first compound 2.53 µM): 1.12
relative viability ([24]; first compound 8 µM): 0.763
